For five compounds, IC50 results are on record in patent US7244740B2, “Imidazo-pyridine derivatives for use in the treatment of herpes viral infection” (SmithKline Beecham Corporation, priority 2001, dated 2007).

SMILES strings stand for the structures.

The IC50 is the point on the concentration scale where inhibition reaches its midpoint.

The subject of this test is HSV-1. As to the kind of experiment: HSV-1 replication in Vero 76 cells, DNA hybridization capture assay. It is filed as cell-based, herpes simplex virus 1. The note with it: Human alphaherpesvirus 1; HSV-1 infected Vero 76 cells, MOI=0.001, 40–48 hours incubation, viral DNA detected by hybridization/chemiluminescence. The protocol:
Vero 76 cells were maintained in MEM with Earle's salts, L-glutamine, 8% FBS (Hyclone, A-1111-L) and 100 units/mL Penicillin-100 μg/mL Streptomycin. For assay conditions, FBS was reduced to 2%. Cells are seeded into 96-well tissue culture plates at a density of 5×10^4 cells/well after being incubated for 45 min at 37° C. in the presence of HSV-1 or HSV-2 (MOI=0.001). Test compounds are added to the wells and the plates are incubated at 37° C. for 40–48 hours. Cell lysates are prepared as follows: media was removed and replaced with 150 μL/well 0.2 N NaOH with 1% Igepal CA 630 or NP-40. Plates were incubated up to 14 days at room temperature in a humidified chamber to prevent evaporation.
For the detection probe, a gel-purified, digoxigenin-labeled, 710-bp PCR fragment of the HSV UL-15 sequence was utilized. PCR conditions included 0.5 μM primers, 180 μM dTTP, 20 μM dUTP-digoxigenin (Boehringer Mannheim 1558706), 200 μM each of dATP, dCTP, and dGTP, 1×PCR Buffer II (Perkin Elmer), 2.5 mM MgCl2, 0.025 units/μL of AmpliTaq Gold polymerase (Perkin Elmer), and 5 ng of gel-purified HSV DNA per 100 μL Extension conditions were 10 min at 95° C., followed by 30 cycles of 95° C. for 1 min, 55° C. for 30 sec, and 72° C. for 2 min. The amplification was completed with a 10-min incubation at 72° C. Primers were selected to amplify a 728 bp probe spanning a section of the HSV1 UL15 open reading frame (nucleotides 249–977). Single-stranded transcripts were purified with Promega M13 Wizard kits. The final product was mixed 1:1 with a mixture of 6 M GuSCN, 100 mM EDTA and 200 μg/mL herring sperm DNA and stored at 4° C.
The capture DNA plasmid (HSV UL13 region in pUC) was linearized by cutting with Xba I, denatured for 15 min at 95° C. and diluted immediately into Reacti-Bind DNA Coating Solution (Pierce, 17250, diluted 1:1 with TE buffer, pH 8) at 1 ng/μL 75 μL/well were added to Corning (#3922 or 9690) white 96-well plates and incubated at room temperature for at least 4 hrs before washing twice with 300 μL/well 0.2×SSC/0.05% Tween-20 (SSC/T buffer). The plates were then incubated overnight at room temperature with 150 μL/well 0.2 N NaOH, 1% IGEPAL and 10 μg/mL herring sperm DNA.
Twenty-seven (27) μL of cell lysate was combined with […] of hybridization solution (final concentration: 3M GuSCN, 50 mM EDTA, 100 μg/ml salmon sperm DNA, 5× Denhardt's solution, 0.25×APE, and 5 ng of the digoxigenin-labeled detection probe). APE is 1.5 M NH4-acetate, 0.15 M ammonium phosphate monobasic, and 5 mM EDTA adjusted to pH 6.0. Mineral oil (50 μL) was added to prevent evaporation. The hybridization plates were incubated at 95° C. for 10 minutes to denature the DNA, then incubated at 42° C. overnight. The wells were washed 6× with 300 μL/well SSC/T buffer then incubated with […] anti-digoxigenin-HRP-conjugated antibody (Boehringer Mannheim 1207733, 1:5000 in TE) for 30 min at room temperature. The wells were washed 6× with 300 μL/well with PBS/0.05% Tween-20 before 75 μL/well SuperSignal LBA substrate (Pierce) was added. The plates were incubated at room temperature for 30 minutes and chemiluminescence was measured in a Wallac Victor reader.
Take `COc1cccc(-c2nc3c(Cl)cccn3c2-c2ccnc(Nc3ccccc3)n2)c1` [Example 1, 4-[8-Chloro-2-(3-methoxyphenyl)imidazo[1,2-α]pyridin-3-yl]-N-phenylpyrimidin-2-amine]: the IC50 is 1460 nM.

Regarding `Cc1ccc(-c2nc3c(NC4CCCC4)cccn3c2-c2ccnc(Nc3ccccc3)n2)cc1` [Example 4, 3-(2-Anilino-4-pyrimidinyl)-N-cyclopentyl-2-(4-methylphenyl)imidazo[1,2-α]pyridin-8-amine], the IC50 was determined as 3540 nM. In turn, `Cc1ccc(-c2nc3c(Cl)cccn3c2-c2ccnc(Nc3ccccc3)n2)cc1` [Example 3, 4-[8-Chloro-2-(4-methylphenyl)imidazo[1,2-α]pyridin-3-yl]-N-phenylpyrimidin-2-amine] showed an IC50 of 3520 nM. Then `O=[N+]([O-])c1cccc(-c2nc3c(Cl)cccn3c2-c2ccnc(Nc3ccc(F)cc3)n2)c1` [Example 5, 4-[8-Chloro-2-(3-nitrophenyl)imidazo[1,2-α]pyridin-3-yl]-N-(4-fluorophenyl)pyrimidin-2-amine], with 2230 nM. With `COc1cccc(-c2nc3c(NC4CCCC4)cccn3c2-c2ccnc(NC3CCCC3)n2)c1` [Example 2, N-Cyclopentyl-3-[2-(cyclopentylamino)-4-pyrimidinyl]-2-(3-methoxyphenyl)imidazo[1,2-α]pyridin-8-amine] the figure was 350 nM.
